The source of these data is US20220211687A1, “USE OF ARIMOCLOMOL IN THE TREATMENT OF NIEMANN PICK DISEASE” (Orphazyme A/S, priority 2020, published 2022).

Each structure is given as a SMILES string.

Holding throughout (format): in vivo, human
Assay [1] has as its system Niemann-Pick disease type C (NPC). As to the kind of experiment: EQ-5D-3L Y proxy health-related quality of life, phase 2/3 trial. On the procedure: EQ-5D-3L Y proxy: The HRQoL of individuals in the trial was measured using the child-friendly version of the EQ-5D-3L Y proxy questionnaire. The questionnaire was completed by the patient's caregiver as a proxy for the individual.

For assay [2] the test system is unchanged. Kind of assay: Nine-hole peg test (9-HPT), phase 2/3 trial. As to conditions: for 9-HPT time, change from baseline to 12 months, LS mean: arimoclomol group. The text has this:
9-HPT: The 9-HPT is a direct and simple measurement of fine motor coordination, hand/eye coordination, and the ability to follow a simple direction, measured in seconds for each hand. The test is not applicable for children under 4 years of age. See Poole J L, Burtner PA, Torres TA, et al. Measuring dexterity in children using the Nine-hole Peg Test. J Hand Ther. 2005; 18:348-51.

The test system is the same in assay [3]. As to the kind of experiment: 5-domain NPCCSS score, open-label extension (OLE) of phase 2/3 trial.

Turning to `[O-][n+]1cccc(/C(Cl)=N/OC[C@H](O)CN2CCCCC2)c1` [Arimoclomol, N-[(2R)-2-hydroxy-3-piperidin-1-ylpropoxy]-1-oxidopyridin-1-ium-3-carboximidoyl chloride], in assay [1] (arimoclomol group), the “EQ-5D-3L Y proxy, Improved at 12 months, %” value is recorded as “(25.9) %”. The “EQ-5D-3L Y proxy, Worsened at 12 months, %” value in assay [1] (arimoclomol group) is “(44.4) %”. Also, the “EQ-5D-3L Y proxy, Worsened at 12 months, Arimoclomol vs placebo: Difference” value in assay [1] (p=0.1804) came to 24.4%. The “EQ-5D-3L Y proxy, Improved at 12 months, Arimoclomol vs placebo: Difference” value in assay [1] (p=0.4880) is listed as −14.1%. The “9-HPT time, change from baseline to 12 months, LS mean” value in assay [2] (Dominant hand) is -3.29 s; in assay [2] (Non-dominant hand), 11.68 s. For the same compound, the “9-HPT time, change from baseline to 12 months, Arimoclomol vs placebo: Difference” value in assay [2] (Dominant hand, p=0.7283) is 3.20 s; in assay [2] (Non-dominant hand, p=0.7708) it was -5.91 s. The “Benefit over a two-year period” value in assay [3] (12-month OLE after 12-month double-blind part) is on record as “sustained benefit”. The “Treatment effect over 36 months” value in assay [3] (OLE, 36 months) is recorded as “sustained treatment effect”. Further, the “5D-NPCCSS mean (SD) change from baseline at M36” value in assay [3] (arimoclomol-arimoclomol group, 3 years' arimoclomol treatment (DB and OLE)) is 3.5 (5.6); in assay [3] (placebo-arimoclomol group, 2 years' arimoclomol treatment (OLE only)), 0.9 (2.1). The “Progression in OLE compared to placebo-controlled part” value in assay [3] (patients who received arimoclomol for a total of two years, mainly due to patients under 4 years) was “greater progression”. Also, the “5-domain NPCCSS progression” value in assay [3] (patients who switched from placebo to arimoclomol, 12-month open label extension) is listed as 0.23. Further, in assay [3] (predefined subgroups: patients 4 years and older, patients receiving miglustat), the “Early treatment initiation versus delayed start of treatment” value is recorded as “greater benefit than delayed start of treatment”. In addition, the “Benefit of sustained treatment across subgroups at M36” value in assay [3] (subgroups: aged >4 years, treated with miglustat, without double functional null mutations) was “consistent benefit”.
